# Tests used:
# CCL-2 = CCL-2 reduction in TNF-α treated A549 cells; format: cell-based, human; conditions: A549, 10 ng/mL TNF-α
# CXCL-8 = CXCL-8 level in supernatant of TNF-α treated A549 cells (multiplex bead immunoassay); format: cell-based, human; conditions: A549, 10 ng/mL TNF-α, 18 hours
# Experimental: (§1) Human lung adenocarcinoma cell line A549 (alveolar type II epithelial-like) cells (ATCC, Manassas, Va.) were maintained in growth media consisting of DMEM supplemented with 10% heat-inactivated fetal calf serum, 2 mM L-glutamine, 100 U/ml penicillin, and 100 μg/ml streptomycin.
# (§2) One day prior to treatment, A549 cells were seeded in 24 well culture plates at 6×10^4 cells/well in 1 mL of DMEM containing 1% FCS. On the day of treatment, media was aspirated. Following PBS wash, 1 mL of media containing 1% FCS, 10 ng/mL TNF-α, and varying concentrations of test compounds was added. Samples were collected at 18 hours and immediately transferred to −80° C. until the day of analysis.
# (§3) Levels of IL-6 and CXCL-8 were measured in cell culture supernatant using the Multiplex Bead Immunoassay Kit (Biosource, Camarillo, Calif.) paired with the Luminex® 200™ System. Standard solutions were prepared by serial dilution in a 50% media, 50% buffer solution so that they were in the same matrix as the samples. Standards and samples were mixed with a solution containing beads coated with capture antibodies specific for IL-6 and CXCL-8. Each capture antibody is bound to a specific bead population with a known internal fluorescence. The Luminex system can differentiate between internal fluorescence of beads allowing detection of multiple analytes in the same well. Following overnight incubation to allow complexation of protein with capture antibodies, wells were washed and beads resuspended in assay buffer. Biotinylated reporter antibodies specific for IL-6 and CXCL-8 were added and incubated for 1.5 hours. Unbound antibodies were removed by washing, and Streptavidin-Phycoerythrin (PE) was added and incubated 30 minutes. Streptavidin binds to biotin on the reporter antibodies. Unbound reagents were removed and samples were analyzed by the Luminex system. This system utilizes a flow cytometry system and lasers capable of exciting the internal dyes of the beads and PE. The machine separates signals from beads with different internal fluorescence and measures fluorescence intensity from PE bound to these beads through protein-antibody interactions. This fluorescence intensity is reported as the median of 100 beads per cytokine in each well. Concentrations were interpolated by fitting fluorescence intensity from unknowns to the standard curves.
# (§4) Cells treated with the pro-inflammatory cytokine TNF-α increase production of IL-6 and CXCL-8 when compared to cells not treated with TNF-α. Cells treated with anti-inflammatory compounds block the inflammatory effect of TNF-α and produce IL-6 and CXCL-8 levels similar to cells that are not treated with TNF-α.
# human CB1 receptor = human CB1 receptor (Homo sapiens (Human), UniProt P21554); test: Receptor binding assay, CB1 ([3H]CP 55,940 displacement); conditions: as repeated in the anti-inflammatory table; read-out: CB-1 Ki
# Experimental: (§5) The assays were carried out in 96 well plates obtained from Millipore, Inc. fitted with glass fiber filters (hydrophilic, GFC filters) having a pore size of 1.2μ. The filters were soaked with 0.05% polyethyleneimine solution and washed 5× with deionized water prior to carrying out the assays. The filtrations were carried out on a 96 well vacuum manifold (Millipore Inc.), the filters punched out with a pipette tip directly into scintillation vials at the end of the experiment and vials filled with 5 ml scintillation cocktail Ecolite (+) (Fisher Scientific). Counting was carried out on a Beckmann Scintillation Counter model LS6500. Drug solutions were prepared in DMSO and the radioligand was dissolved in ethanol.
# (§6) 50 mM TRIS-HCl, 5 mM MgCl2, 2.5 mM EDTA, 0.5 mg/ml fatty acid free bovine serum albumin, pH 7.4.
# (§7) The membranes were filtered and the filters washed 7× with 0.2 ml ice-cold incubation buffer and allowed to air dry under vacuum.
# (§8) Final data are presented as Ki±S.E.M. of n≧3 experiments.
# NF-κB = NF-κB SEAP reporter assay in TNF-α treated A549 cells; format: cell-based; conditions: Homo sapiens, read-out: NF-κB Reduction
# Experimental: as §1
# The plasmid pNF-κB-SEAP-NPT was kindly provided by Dr. Y. S. Kim of the Seoul National University. This plasmid contains a secreted alkaline phosphatase (SEAP) reporter gene coupled with the κB response element. Upon activation, NF-κB translocates to the nucleus and binds to the κB response element causing transcriptional activation. This activation drives production of the SEAP reporter, which is secreted into the cell culture supernatant where it can be measured. The neomycin phosphotransferase (NPT) region of the plasmid provides resistance to the antibiotic G-418.
# A549 cells were stably transfected with pNF-κB-SEAP-NPT using GeneJammer Transfection Reagent (Stratagene, La Jolla, Calif.) per manufacturer's protocol. G-418 (500 μg/ml) was added 24 hrs after transfection to select for stable transfection of NF-κB. Resistant colonies were selected and maintained in growth media supplemented with 500 μg/ml G-418.
# Previous experiments have shown A549 cells respond to the pro-inflammatory cytokine TNF-α by activation of the pro-inflammatory transcription factor, NF-κB. This effect is dose dependent with the maximum effect seen at 10 ng/mL TNF-α. Compounds with anti-inflammatory activity can be used to inhibit this activation of NF-κB.
# One day prior to treatment, transfected cells were seeded in 24 well culture plates at 6×10^4 cells/well in 1 mL of DMEM containing 1% FCS. On the day of treatment, media was aspirated. Following PBS wash, 1 mL of media containing 1% FCS, 10 ng/mL TNF-α, and varying concentrations of test compounds was added. Cell culture supernatant was collected at 18 hours. SEAP production was measured in 50 μL of supernatant using the Great EscAPe™ chemiluminescence kit (Clontech, Mountain View, Calif.). Briefly, samples were incubated at 65° C. for 30 minutes to inactivate endogenous alkaline phosphate. Following a 5-minute equilibration with assay buffer, chemiluminescent substrate and enhancer was added. Chemiluminescence was measured after 10 minutes. Higher levels of chemiluminescence result from increased SEAP production and correspond to NF-κB activity. Compounds capable of inhibiting NF-κB activation due to TNF-α are determined by a reduction in chemiluminescence values when cells are treated with TNF-α and test compound versus cells treated with TNF-α alone.
# human CB2 receptor = human CB2 receptor (Homo sapiens (Human), UniProt P34972); test: Receptor binding assay, CB2 ([3H]CP 55,940 displacement); conditions: for Ki: as repeated in the anti-inflammatory table, read-out: CB-2 Ki; for CB1/CB2: ratio of Ki CB-1 to Ki CB-2
# Experimental: as §5, §6, §7, §8
# [1] = test system: DU-145 prostate cancer cells; test: Anti-cancer activity, WST-8 cell viability, DU-145; format: cell-based; conditions: Homo sapiens, DU-145; cell death at 18 hours, WST-8; n.a. = no activity; read-out: DU-145 prostate EC50
# Experimental: (§9) A representative group of compounds (shown below) was tested for anti-cancer activity against human lung (DMS-135 and H69AR), prostate (DU-145), colorectal (HCT-15), and pancreatic (BxPC-3) cancer cell lines using the methodology described below, providing results shown in Table 3.
# (§10) Human cancer cells DU-145, DMS-135, H69AR, HCT-15, and BxPC-3 (American Type Culture Collection, ATCC) were cultured in supplemented media according to the recommendations of the supplier. Cells lines were plated in 96-well flat-bottom plates at 70% confluency in a 100 μl total volume of supplemented media as indicated, and incubated overnight at 37° C. to allow for adherence. The cultures were inoculated with escalating amounts of drug and cell death was analyzed at 18 hours, using the BioTek Synergy 2 Multidetection Microplate Reader. The percentage of viable cells present in the culture at each time point was calculated by comparing the absorbance value at 450 nm from the WST-8 assay (Pojindo Molecular Technologies) for each condition with untreated control cells.
# H69AR lung cancer cells = test: Anti-cancer activity, WST-8 cell viability, H69AR; format: cell-based; conditions: Homo sapiens, cell death at 18 hours, WST-8, n.a. = no activity, read-out: H69AR lung EC50
# Experimental: as §9, §10
# [2] = test system: BxPC-3 pancreatic cancer cells; test: Anti-cancer activity, WST-8 cell viability, BxPC-3; format: cell-based; conditions: Homo sapiens, BXPC-3; cell death at 18 hours, WST-8; n.a. = no activity; read-out: BxPC-3 pancreatic EC50
# Experimental: as §9, §10
# [3] = test system: HCT-15 colorectal cancer cells; test: Anti-cancer activity, WST-8 cell viability, HCT-15; format: cell-based; conditions: Homo sapiens, HCT-15; cell death at 18 hours, WST-8; n.a. = no activity; read-out: HCT-15 colorectal EC50
# Experimental: as §9, §10
# IL-6 = IL-6 level in supernatant of TNF-α treated A549 cells (multiplex bead immunoassay); format: cell-based, human; conditions: 1 μM compound; A549, 10 ng/mL TNF-α, 18 hours
# Experimental: as §1, §2, §3, §4
# [4] = test system: DMS-135 lung cancer cells; test: Anti-cancer activity, WST-8 cell viability, DMS-135; format: cell-based; conditions: Homo sapiens; cell death at 18 hours, WST-8; n.a. = no activity; read-out: DMS-135 lung EC50
# Experimental: as §9, §10
# Sequence of human CB1 receptor (P21554 whole entry): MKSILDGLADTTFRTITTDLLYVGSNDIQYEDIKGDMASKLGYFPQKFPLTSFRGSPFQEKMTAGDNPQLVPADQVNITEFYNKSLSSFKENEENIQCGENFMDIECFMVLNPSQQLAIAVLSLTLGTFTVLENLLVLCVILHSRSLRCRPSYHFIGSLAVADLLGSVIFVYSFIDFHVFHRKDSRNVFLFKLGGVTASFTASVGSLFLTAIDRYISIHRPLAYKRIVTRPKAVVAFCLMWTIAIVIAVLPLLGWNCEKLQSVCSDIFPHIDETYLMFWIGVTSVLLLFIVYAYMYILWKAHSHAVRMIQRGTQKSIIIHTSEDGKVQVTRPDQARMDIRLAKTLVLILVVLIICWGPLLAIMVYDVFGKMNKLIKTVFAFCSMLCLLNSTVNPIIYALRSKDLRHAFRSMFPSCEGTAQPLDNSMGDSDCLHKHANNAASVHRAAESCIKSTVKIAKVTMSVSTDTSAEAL
smiles,measurement,setting,value
"COc1cc(C(=O)c2ccccc2)cc(O)c1-c1cccc(C)c1 [Compound 27, (2-Hydroxy-6-methoxy-3′-methyl-biphenyl-4-yl)-phenyl-methanone]",CCL-2 Reduction,CCL-2; 10 nM compound,32 ± 9%
same,CXCL-8 Reduction,CXCL-8; 1 nM compound,50%
same,CXCL-8 Reduction,CXCL-8; 10 nM compound,27 ± 15%
same,Ki,human CB1 receptor,> 1000 nM
same,inhibition at 0.001 µM,"NF-κB; 1 nM compound, A549, 10 ng/mL TNF-α, 18 hours",45%
same,inhibition at 0.01 µM,"NF-κB; 10 nM compound, A549, 10 ng/mL TNF-α, 18 hours",38 ± 10%
same,Ki,human CB2 receptor,225 nM
same,CB1/CB2,human CB2 receptor,4.44
"O=C(c1ccccc1)c1cc(O)c(-c2cc(Cl)cc(Cl)c2)c(O)c1 [Compound 28, (3′,5′-dichloro-2,6-dihydroxybiphenyl-4-yl)(phenyl)methanone]",EC50,[1],5.4 µM
same,EC50,H69AR lung cancer cells,2400 nM
same,CXCL-8 Reduction,CXCL-8; 1 μM compound,5%
same,Ki,human CB1 receptor,27 nM
same,inhibition at 1 µM,"NF-κB; 1 μM compound, A549, 10 ng/mL TNF-α, 18 hours",35%
same,Ki,human CB2 receptor,2.94 nM
same,CB1/CB2,human CB2 receptor,9.18
same,EC50,[2],4 µM
same,EC50,[3],800 nM
same,IL-6 Reduction,IL-6,15%
same,EC50,[4],11.8 µM
"Cc1cccc(-c2c(O)cc(C(=O)c3ccccc3)cc2O)c1 [Compound 26, (2,6-Dihydroxy-3′-methyl-biphenyl-4-yl)-phenyl-methanone]",CCL-2 Reduction,CCL-2; 100 nM compound,61 ± 19%
same,CXCL-8 Reduction,CXCL-8; 100 nM compound,59 ± 5%
same,Ki,human CB1 receptor,983 nM
same,inhibition at 0.1 µM,"NF-κB; A549, 18 h",67 ± 9%
same,Ki,human CB2 receptor,159 ± 2.92 nM
same,CB1/CB2,human CB2 receptor,6.18

# From patent publication US9139546B2, “Tri-aryl/heteroaromatic cannabinoids and use thereof” (priority 2007, dated 2015)
